Reference: US6489469B1, “Method for storing or transporting erythritol solution” (Nikken Chemicals Co., Ltd., priority 1999, dated 2002)

Experiments:
[1] = system: Staphylococcus aureus IFO 13276; assay: Viable Count of Staphylococcus aureus IFO 13276 in Erythritol Solution; format: cell-based
Description: (§1) Erythritol solutions of respective concentrations in the range of from 30 to 60% were prepared. To these were inoculated Staphylococcus aureus IFO 13276, Bacillus subtilis IFO 3134, and Escherichia coli IFO 3972 as bacteria, Candida albicans IFO 1549 and Saccharomyces cerevisiae ATCC 9763 as yeasts, Aspergillus niger IFO 6342, Aspergillus flavus IFO 6343, and Penicillium funiculosum IFO 6345 as fungi, respectively, in a population (concentration) of 10,000 cells/mL or more. After the inoculation, the solutions were stored at 30, 37, 45, 50, or 60° C., respectively, for 56 days and the number of viable cell was determined daily. The determination of the number of viable cell was performed by a method of coating 0.1 mL of appropriately diluted sample cultivation on an agar plate and cultivating and counting the number of viable cell (the number of colony) that grew after the cultivation.

[2] = system: Bacillus subtilis IFO 3134; assay: Viable Count of Bacillus subtilis IFO 3134 in Erythritol Solution; format: cell-based
Description: as §1

SMILES: OC[C@@H](O)[C@@H](O)CO [Erythritol Solution, erythritol]
- The Number of Viable Cell ([1]; 30° C., 30% w/w, Day 0): 10000 or more cells/mL
- The Number of Viable Cell ([1]; 30° C., 30% w/w, Day 3): 20400 cells/mL
- The Number of Viable Cell ([1]; 30° C., 30% w/w, Day 7): 11100 cells/mL
- The Number of Viable Cell ([1]; 30° C., 30% w/w, Day 14): 360 cells/mL
- The Number of Viable Cell ([1]; 30° C., 30% w/w, Day 28): 0 cells/mL
- The Number of Viable Cell ([1]; 30° C., 30% w/w, Day 56): 0 cells/mL
- The Number of Viable Cell ([1]; 30° C., 40% w/w, Day 0): 10000 or more cells/mL
- The Number of Viable Cell ([1]; 30° C., 40% w/w, Day 3): 8380 cells/mL
- The Number of Viable Cell ([1]; 30° C., 40% w/w, Day 7): 6200 cells/mL
- The Number of Viable Cell ([1]; 30° C., 40% w/w, Day 14): 4200 cells/mL
- The Number of Viable Cell ([1]; 30° C., 40% w/w, Day 28): 0 cells/mL
- The Number of Viable Cell ([1]; 30° C., 40% w/w, Day 56): 0 cells/mL
- The Number of Viable Cell ([1]; 45° C., 30% w/w, Day 0): 10000 or more cells/mL
- The Number of Viable Cell ([1]; 45° C., 30% w/w, Day 3): 0 cells/mL
- The Number of Viable Cell ([1]; 45° C., 30% w/w, Day 7): 0 cells/mL
- The Number of Viable Cell ([1]; 45° C., 30% w/w, Day 14): 0 cells/mL
- The Number of Viable Cell ([1]; 45° C., 30% w/w, Day 28): 0 cells/mL
- The Number of Viable Cell ([1]; 45° C., 30% w/w, Day 56): 0 cells/mL
- The Number of Viable Cell ([1]; 45° C., 40% w/w, Day 0): 10000 or more cells/mL
- The Number of Viable Cell ([1]; 45° C., 40% w/w, Day 3): 0 cells/mL
- The Number of Viable Cell ([1]; 45° C., 40% w/w, Day 7): 0 cells/mL
- The Number of Viable Cell ([1]; 45° C., 40% w/w, Day 14): 0 cells/mL
- The Number of Viable Cell ([1]; 45° C., 40% w/w, Day 28): 0 cells/mL
- The Number of Viable Cell ([1]; 45° C., 40% w/w, Day 56): 0 cells/mL
- The Number of Viable Cell ([1]; 45° C., 50% w/w, Day 0): 10000 or more cells/mL
- The Number of Viable Cell ([1]; 45° C., 50% w/w, Day 3): 0 cells/mL
- The Number of Viable Cell ([1]; 45° C., 50% w/w, Day 7): 0 cells/mL
- The Number of Viable Cell ([1]; 45° C., 50% w/w, Day 14): 0 cells/mL
- The Number of Viable Cell ([1]; 45° C., 50% w/w, Day 28): 0 cells/mL
- The Number of Viable Cell ([1]; 45° C., 50% w/w, Day 56): 0 cells/mL
- The Number of Viable Cell ([1]; 50° C., 30% w/w, Day 0): 10000 or more cells/mL
- The Number of Viable Cell ([1]; 50° C., 30% w/w, Day 3): 0 cells/mL
- The Number of Viable Cell ([1]; 50° C., 30% w/w, Day 7): 0 cells/mL
- The Number of Viable Cell ([1]; 50° C., 30% w/w, Day 14): 0 cells/mL
- The Number of Viable Cell ([1]; 50° C., 30% w/w, Day 28): 0 cells/mL
- The Number of Viable Cell ([1]; 50° C., 30% w/w, Day 56): 0 cells/mL
- The Number of Viable Cell ([1]; 50° C., 40% w/w, Day 0): 10000 or more cells/mL
- The Number of Viable Cell ([1]; 50° C., 40% w/w, Day 3): 0 cells/mL
- The Number of Viable Cell ([1]; 50° C., 40% w/w, Day 7): 0 cells/mL
- The Number of Viable Cell ([1]; 50° C., 40% w/w, Day 14): 0 cells/mL
- The Number of Viable Cell ([1]; 50° C., 40% w/w, Day 28): 0 cells/mL
- The Number of Viable Cell ([1]; 50° C., 40% w/w, Day 56): 0 cells/mL
- The Number of Viable Cell ([1]; 50° C., 50% w/w, Day 0): 10000 or more cells/mL
- The Number of Viable Cell ([1]; 50° C., 50% w/w, Day 3): 0 cells/mL
- The Number of Viable Cell ([1]; 50° C., 50% w/w, Day 7): 0 cells/mL
- The Number of Viable Cell ([1]; 50° C., 50% w/w, Day 14): 0 cells/mL
- The Number of Viable Cell ([1]; 50° C., 50% w/w, Day 28): 0 cells/mL
- The Number of Viable Cell ([1]; 50° C., 50% w/w, Day 56): 0 cells/mL
- growth of the microbes ([1]; temperature of 50° C. or more): prevented from growing
- time after which microbes died ([1]; temperature of 50° C. or more): 3 days
- The Number of Viable Cell ([2]; 30° C., 30% w/w, Day 0): 10000 or more cells/mL
- The Number of Viable Cell ([2]; 30° C., 30% w/w, Day 3): 2980 cells/mL
- The Number of Viable Cell ([2]; 30° C., 30% w/w, Day 7): 440 cells/mL
- The Number of Viable Cell ([2]; 30° C., 30% w/w, Day 14): 110 cells/mL
- The Number of Viable Cell ([2]; 30° C., 30% w/w, Day 28): 750 cells/mL
- The Number of Viable Cell ([2]; 30° C., 30% w/w, Day 56): 0 cells/mL
- The Number of Viable Cell ([2]; 30° C., 40% w/w, Day 0): 10000 or more cells/mL
- The Number of Viable Cell ([2]; 30° C., 40% w/w, Day 3): 300 cells/mL
- The Number of Viable Cell ([2]; 30° C., 40% w/w, Day 7): 0 cells/mL
- The Number of Viable Cell ([2]; 30° C., 40% w/w, Day 14): 20 cells/mL
- The Number of Viable Cell ([2]; 30° C., 40% w/w, Day 28): 0 cells/mL
- The Number of Viable Cell ([2]; 30° C., 40% w/w, Day 56): 0 cells/mL
- The Number of Viable Cell ([2]; 37° C., 30% w/w, Day 0): 10000 or more cells/mL
- The Number of Viable Cell ([2]; 37° C., 30% w/w, Day 3): 170 cells/mL
- The Number of Viable Cell ([2]; 37° C., 30% w/w, Day 7): 11500 cells/mL
- The Number of Viable Cell ([2]; 37° C., 30% w/w, Day 28): 1000 cells/mL
- The Number of Viable Cell ([2]; 37° C., 30% w/w, Day 56): 0 cells/mL
- The Number of Viable Cell ([2]; 37° C., 40% w/w, Day 0): 10000 or more cells/mL
- The Number of Viable Cell ([2]; 37° C., 40% w/w, Day 3): 0 cells/mL
- The Number of Viable Cell ([2]; 37° C., 40% w/w, Day 7): 0 cells/mL
- The Number of Viable Cell ([2]; 37° C., 40% w/w, Day 14): 0 cells/mL
- The Number of Viable Cell ([2]; 37° C., 40% w/w, Day 28): 0 cells/mL
- The Number of Viable Cell ([2]; 37° C., 40% w/w, Day 56): 0 cells/mL
- The Number of Viable Cell ([2]; 45° C., 30% w/w, Day 0): 10000 or more cells/mL
- The Number of Viable Cell ([2]; 45° C., 30% w/w, Day 7): 110 cells/mL
- The Number of Viable Cell ([2]; 45° C., 30% w/w, Day 14): 0 cells/mL
- The Number of Viable Cell ([2]; 45° C., 30% w/w, Day 28): 0 cells/mL
- The Number of Viable Cell ([2]; 45° C., 30% w/w, Day 56): 0 cells/mL
- The Number of Viable Cell ([2]; 45° C., 50% w/w, Day 0): 10000 or more cells/mL
- The Number of Viable Cell ([2]; 45° C., 50% w/w, Day 3): 30 cells/mL
- The Number of Viable Cell ([2]; 45° C., 50% w/w, Day 7): 0 cells/mL
- The Number of Viable Cell ([2]; 45° C., 50% w/w, Day 14): 0 cells/mL
- The Number of Viable Cell ([2]; 45° C., 50% w/w, Day 28): 0 cells/mL
- The Number of Viable Cell ([2]; 45° C., 50% w/w, Day 56): 0 cells/mL
- The Number of Viable Cell ([2]; 50° C., 30% w/w, Day 0): 10000 or more cells/mL
- The Number of Viable Cell ([2]; 50° C., 30% w/w, Day 3): 0 cells/mL
- The Number of Viable Cell ([2]; 50° C., 30% w/w, Day 7): 0 cells/mL
- The Number of Viable Cell ([2]; 50° C., 30% w/w, Day 14): 0 cells/mL
- The Number of Viable Cell ([2]; 50° C., 30% w/w, Day 28): 0 cells/mL
- The Number of Viable Cell ([2]; 50° C., 30% w/w, Day 56): 0 cells/mL
- The Number of Viable Cell ([2]; 50° C., 40% w/w, Day 0): 10000 or more cells/mL
- The Number of Viable Cell ([2]; 50° C., 40% w/w, Day 3): 0 cells/mL
- The Number of Viable Cell ([2]; 50° C., 40% w/w, Day 7): 0 cells/mL
- The Number of Viable Cell ([2]; 50° C., 40% w/w, Day 14): 0 cells/mL
- The Number of Viable Cell ([2]; 50° C., 40% w/w, Day 28): 0 cells/mL
- The Number of Viable Cell ([2]; 50° C., 40% w/w, Day 56): 0 cells/mL
- The Number of Viable Cell ([2]; 50° C., 50% w/w, Day 0): 10000 or more cells/mL
- The Number of Viable Cell ([2]; 50° C., 50% w/w, Day 3): 0 cells/mL
- The Number of Viable Cell ([2]; 50° C., 50% w/w, Day 7): 0 cells/mL
- The Number of Viable Cell ([2]; 50° C., 50% w/w, Day 14): 0 cells/mL
- The Number of Viable Cell ([2]; 50° C., 50% w/w, Day 28): 0 cells/mL
- The Number of Viable Cell ([2]; 50° C., 50% w/w, Day 56): 0 cells/mL
- growth of the microbes ([2]; temperature of 50° C. or more): prevented from growing
- time after which microbes died ([2]; temperature of 50° C. or more): 3 days
